{"source": "patent US6326014A", "about": "“Use of oxamate derivatives as depigmenting agents” (L, Oreal, priority 1997, dated 2001)", "system": "co-culture of keratinocytes and melanocytes", "test": "Depigmenting activity: inhibition of melanogenesis in co-culture of keratinocytes and melanocytes", "type": "cell-based", "conditions": "for pIC50: keratinocyte/melanocyte co-culture, read-out: IC50 (50% inhibition of melanogenesis)", "protocol": "This test corresponds to the one described in patent FR 2,734,825 filed by the Applicant, as well as in the article by R. Schmidt, P. […], Anal. Biochem., 235(2), 113-18, (1996), the entire contents of each of which are hereby incorporated by reference. […] For each test compound, the IC50 value, which corresponds to the micromolar concentration (μM) for which a 50% inhibition of melanogenesis is observed, is determined. Moreover, a class is given to each of these compounds as regards their maximum depigmenting activity: […]", "note": "pIC50: −log10 of the molar value."}
{"smiles": "CCOC(=O)C(=O)Nc1ccc(O)cc1", "note": "[Example 1, Ethyl N-(4-hydroxyphenyl)oxamate]", "values": [{"measurement": "Class (maximum depigmenting activity)", "setting": "at 50 μM", "result": "3 (60 to 100% inhibition of melanogenesis relative to the control (same experiment without test compound))"}, {"measurement": "pIC50", "result": 5.00}]}
{"smiles": "O=C(NC[C@H](O)[C@@H](O)[C@H](O)[C@H](O)CO)C(=O)Nc1ccc(O)cc1", "note": "[Example 2, N-(4-hydroxyphenyl)-N'-(D-glucamino)oxamide]", "values": [{"measurement": "Class (maximum depigmenting activity)", "setting": "at 10 μM", "result": "2 (30 to 60% inhibition of melanogenesis relative to the control (same experiment without test compound))"}, {"measurement": "pIC50", "result": 5.00}]}
{"smiles": "O=c1cc(CO)occ1O", "note": "[Kojic acid, reference compound]", "values": [{"measurement": "Class (maximum depigmenting activity)", "setting": "at 500 μM", "result": "2 (30 to 60% inhibition of melanogenesis relative to the control (same experiment without test compound))"}, {"measurement": "pIC50", "result": 3.30}]}
